In PubChem BioAssay (NCI):
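These data come from cells grown in 96-well plates and exposed to compound for 48 hours at five concentrations. TGI denotes the concentration required for complete inhibition of growth.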

How the values were obtained:
Experiment in all cases: growth of human tumour cells (NCI), 48 h
[1] = system: NCI-H226 lung
[2] = system: SK-MEL-2 melanoma
[3] = system: SK-OV-3 ovarian
[4] = system: SW-620 colon
[5] = system: DU-145 prostate
[6] = system: MOLT-4 leukemia
[7] = system: OVCAR-8 ovarian
[8] = system: NCI-H23 lung
[9] = system: RPMI-8226 leukemia
[10] = system: SK-MEL-5 melanoma
[11] = system: SF-539 CNS
[12] = system: K-562 leukemia
[13] = system: UO-31 renal
[14] = system: 786-0 renal
[15] = system: HCT-116 colon
[16] = system: T-47D breast
[17] = system: CAKI-1 renal
[18] = system: KM12 colon
[19] = system: A498 renal
[20] = system: LOX IMVI melanoma
[21] = system: SNB-75 CNS
[22] = system: PC-3 prostate
[23] = system: MALME-3M melanoma
[24] = system: HT29 colon
[25] = system: OVCAR-3 ovarian
[26] = system: SNB-19 CNS
[27] = system: NCI/ADR-RES ovarian
[28] = system: CCRF-CEM leukemia
[29] = system: OVCAR-5 ovarian
[30] = system: MDA-N
[31] = system: RXF 393 renal
[32] = system: EKVX NSCLC
[33] = system: NCI-H460 lung
[34] = system: HL-60(TB) leukemia
[35] = system: MDA-MB-435
[36] = system: COLO 205 colon
[37] = system: TK-10 renal
[38] = system: M14 melanoma
[39] = system: OVCAR-4 ovarian
[40] = system: NCI-H522 lung
[41] = system: HCC-2998 colon
[42] = system: HCT-15 colon
[43] = system: SR leukemia
[44] = system: UACC-62 melanoma
[45] = system: A549 NSCLC
[46] = system: U251 CNS
[47] = system: MCF7 breast
[48] = system: BT-549 breast
[49] = system: MDA-MB-231 breast
[50] = system: HS 578T breast
[51] = system: UACC-257 melanoma
[52] = system: SF-268 CNS
[53] = system: SK-MEL-28 melanoma
[54] = system: SN12C renal
[55] = system: IGROV1 ovarian
[56] = system: ACHN renal
[57] = system: SF-295 CNS
[58] = system: HOP-62 NSCLC
[59] = system: HOP-92 NSCLC

Structure (SMILES): CSC1=NN(c2ccccc2)C(=O)C1=C(SC)SC
- TGI [1]: 39.9 µM
- TGI [2]: 73.4 µM
- TGI [3]: > 100 µM
- TGI [4]: > 100 µM
- TGI [5]: > 100 µM
- TGI [6]: > 100 µM
- TGI [7]: 65.9 µM
- TGI [8]: 55.7 µM
- TGI [9]: 47 µM
- TGI [10]: 29.8 µM
- TGI [11]: 70.3 µM
- TGI [12]: 45.9 µM
- TGI [13]: 37 µM
- TGI [14]: > 100 µM
- TGI [15]: 53.8 µM
- TGI [16]: 70.3 µM
- TGI [17]: 43.9 µM
- TGI [18]: > 100 µM
- TGI [19]: 35.4 µM
- TGI [20]: 66.1 µM
- TGI [21]: 94.3 µM
- TGI [22]: 47 µM
- TGI [23]: 39.6 µM
- TGI [24]: 43.5 µM
- TGI [25]: > 100 µM
- TGI [26]: 82 µM
- TGI [27]: 49.2 µM
- TGI [28]: > 100 µM
- TGI [29]: > 100 µM
- TGI [30]: > 100 µM
- TGI [31]: 62.7 µM
- TGI [32]: > 100 µM
- TGI [33]: 41.4 µM
- TGI [34]: 51.8 µM
- TGI [35]: > 100 µM
- TGI [36]: 26 µM
- TGI [37]: 74.6 µM
- TGI [38]: > 100 µM
- TGI [39]: > 100 µM
- TGI [40]: 25.5 µM
- TGI [41]: 91.7 µM
- TGI [42]: 76 µM
- TGI [43]: 83.7 µM
- TGI [44]: 66.7 µM
- TGI [45]: 64.6 µM
- TGI [46]: 87.6 µM
- TGI [47]: 49.6 µM
- TGI [48]: > 100 µM
- TGI [49]: 53 µM
- TGI [50]: > 100 µM
- TGI [51]: 46.7 µM
- TGI [52]: > 100 µM
- TGI [53]: > 100 µM
- TGI [54]: 97.8 µM

Structure (SMILES): OC1(c2ccccc2)c2ccccc2NC2=NCCN21 (stereo not given)
- TGI [1]: > 100 µM
- TGI [2]: > 100 µM
- TGI [3]: > 100 µM
- TGI [4]: > 100 µM
- TGI [5]: > 100 µM
- TGI [6]: 52.2 µM
- TGI [7]: > 100 µM
- TGI [8]: > 100 µM
- TGI [55]: > 100 µM
- TGI [9]: 45.8 µM
- TGI [10]: > 100 µM
- TGI [11]: > 100 µM
- TGI [13]: > 100 µM
- TGI [14]: > 100 µM
- TGI [56]: > 100 µM
- TGI [15]: > 100 µM
- TGI [16]: > 100 µM
- TGI [17]: > 100 µM
- TGI [18]: > 100 µM
- TGI [19]: > 100 µM
- TGI [20]: > 100 µM
- TGI [21]: > 100 µM
- TGI [22]: > 100 µM
- TGI [57]: > 100 µM
- TGI [24]: > 100 µM
- TGI [25]: > 100 µM
- TGI [26]: > 100 µM
- TGI [27]: > 100 µM
- TGI [29]: > 100 µM
- TGI [30]: > 100 µM
- TGI [31]: > 100 µM
- TGI [32]: > 100 µM
- TGI [33]: > 100 µM
- TGI [34]: > 100 µM
- TGI [58]: > 100 µM
- TGI [35]: > 100 µM
- TGI [36]: 99.6 µM
- TGI [37]: > 100 µM
- TGI [38]: > 100 µM
- TGI [39]: > 100 µM
- TGI [40]: > 100 µM
- TGI [41]: 31.3 µM
- TGI [42]: > 100 µM
- TGI [43]: 45 µM
- TGI [44]: > 100 µM
- TGI [59]: > 100 µM
- TGI [45]: > 100 µM
- TGI [46]: > 100 µM
- TGI [47]: > 100 µM
- TGI [48]: > 100 µM
- TGI [49]: > 100 µM
- TGI [50]: > 100 µM
- TGI [51]: > 100 µM
- TGI [52]: > 100 µM
- TGI [53]: > 100 µM
- TGI [54]: > 100 µM
